Here are results for one substance from patent US20240150401A1, “INSECT NEUROPEPTIDES 7” (Solasta Bio Limited, priority 2022, published 2024).

Common to all, as to type: in vivo
The test system of one data set is Myzus persicae aphids. Briefly: Leaf dip assay (IRAC susceptibility test method 019), mortality assessment. The following applies: unformulated, mortality assessed at 72, 96 and 120 hours, compared to vehicle and Spirotetramat (FIGS. 6-8). The protocol: The assay was carried out based on IRAC susceptibility test method 019 (https://irac-online.org/methods/aphids-adultnymphs/).
Fill a small 4 cm wide 3 cm high dish with a 1% agar treatment solution of the active chemical or control (ensuring 1 cm gap between the agar and the lid) and leave to set. Dip a 2.5 cm leaf disc into 3 ml of treatment solution allowing the treatment to coat the leaf. Leave the disc to dry for 1 hour and place onto the set agar. Place insects (Myzus persicae aphids) onto each of the leaf discs. Each unit is sealed with a close-fitting, ventilated lid. Place the agar dishes in a small plastic tray lined with moist tissue paper and ensure the water trays in the bottom of the incubator are filled with clean water and place within the incubator. An assessment of mortality is made at 72, 96 and 120 hours. Leaf dip assays were performed with SB-P-66, and compared to a negative control vehicle and a current commercial insecticide Spirotetramat. The activity of SB-P-66 is shown in FIGS. 6 and 7; SB-P-66 has good activity whilst being eco-friendly and targeted to specific pests unlike broad spectrum chemical insecticides such as Spirotetramat.

Data set [1] has as its system Amrasca biguttula (leaf hopper). Kind of data set: Field trials. The following applies: unformulated; naturally infested; over time; comparable to commercial insecticides (FIG. 14). How it is done: (§1) Field trials for peptide SB-P-66, unformulated, against various insects were conducted by third-party organisations PGRO and AgriScience.
The subject of a further data set is Myzus persicae. Kind of data set: Field trials. The following applies: unformulated; comparable to commercial insecticides. How it is done:
as §1

For the next data set, the system named is bees. Briefly: Bee oral toxicity test (adapted from OECD Test No. 247: Bumblebee, Acute Oral Toxicity Test). The following applies: 96 hours after application, compared to Imidacloprid (FIG. 9). How it is done: Bee oral testing protocol was carried out adapted from OECD Test No. 247: Bumblebee, Acute Oral Toxicity Test. The toxicity of SB-P-66 was compared with a negative control of sucrose or vehicle, and with a current commercial insecticide Imidacloprid.

The test system of another data set is Aphis fabae. Briefly: Field trials on vining peas (PGRO). The following applies: unformulated, naturally infested, comparable to commercial insecticides (FIGS. 10, 13). How it is done: as §1
The subject of the next data set is Aphis gossypii. Kind of data set: Field trials on cotton and melon (AgriScience). The following applies: unformulated, naturally infested, comparable to commercial insecticides (FIGS. 11, 12). The protocol: as §1

Turning to “H-PAFSSWG-NH2 [SB-P-66, [Hy]-PAFSSWG-[NH2]]”, the “activity against Myzus persicae (mortality)” value with Myzus persicae aphids was “good activity”. Further, the “efficacy in field trials against Amrasca biguttula” value in data set [1] is given as “good efficacy”. Besides, the “efficacy in field trials against Myzus persicae” value in the data set on Myzus persicae is “good efficacy”. Moreover, the “bee oral toxicity (% survival)” value in the data set on bees is “far lower toxicity”. Further, the “efficacy in field trials against Aphis fabae” value in the data set with Aphis fabae is given as “good efficacy”. For the same substance, the “efficacy in field trials against Aphis gossypii” value in the data set with Aphis gossypii is given as “good efficacy”.
